Literature values in patent publication US7893091B2, “Combination therapy for the treatment of urinary frequency, urinary urgency and urinary incontinence” (Merck Sharp & Dohme Corp., priority 2005, dated 2011).

How the values were obtained:
rats [1] = test system: rats
C-fibers [2] = conditions: instilled directly into the bladder
rats [3] = test system: rats; remark: listed apart in the source
C-fibers [4] = conditions: more potent than capsaicin
isolated bladder strips = conditions: tissue bath

For `C[C@H](Cc1ccc2c(c1)OC(C(=O)[O-])(C(=O)[O-])O2)NC[C@H](O)c1cccc(Cl)c1.[Na+].[Na+]` [CL316243], the “voiding interval in the hyperreflexia paradigms” value (rats [1]; administered intravenously) is given as “dose-dependently normalizes voiding interval”, the “spontaneous bladder contractions in the detrusor instability paradigm” value (rats [1]; administered orally) is given as “dose-dependent inhibition” and the bladder pressure (rats [1]; intravenous administration) is given as “reduces bladder pressure”. For the same molecule, the “bladder capacity in cystomeric studies” value (rats [1]; intravenous administration, prolongation of micturition interval without increasing residual urine volume) was “increases bladder capacity”.
In the case of `COc1cc(CNC(=O)CCCC/C=C/C(C)C)ccc1O` [Capsaicin], the “beneficial effects (i.e. increased bladder capacity), share of patients” value (C-fibers [2]) is given as ~70 % of patients.
For `COc1ccccc1CC(=N)N1C[C@@H]2C(=O)CCC(c3ccccc3)(c3ccccc3)[C@@H]2C1` [RP 67580], the “volume threshold in cyclophosphamide-induced model of bladder overactivity” value (rats [3]; rats, i.t. versus i.v. administration) is given as “increased the volume threshold after i.t., but not i.v. administration”.
For `C=C(C)[C@]12C[C@@H](C)[C@@]34O[C@](Cc5ccccc5)(O[C@@H]1[C@@H]3C=C(COC(=O)Cc1ccc(O)c(OC)c1)C[C@]1(O)C(=O)C(C)=C[C@@H]41)O2` [Resinferatoxin], the “potency relative to capsaicin” value (C-fibers [4]) is given as about 100 fold.
For `CC(=O)NC1(c2ccccc2)CCN(CC[C@H](CN(C)C(=O)c2ccccc2)c2ccc(Cl)c(Cl)c2)CC1` [SR 48968], the “response in cyclophosphamide-induced model of bladder overactivity” value (rats [3]; 10 nmol/rat) is listed as “moderate response”.
In the case of `Cc1ccc(-c2c3n(c(=O)c4ncccc24)CC[C@@H](C)CN(Cc2cc(C(F)(F)F)cc(C(F)(F)F)c2)C3=O)cc1` [TAK-637], the “micturition reflex induced by electrical stimulation of the rostral brainstem near the locus coeruleus” value (decerebrate cats; 3 mg/kg i.v.) is listed as “did not inhibit”, the voiding efficiency (decerebrate cats; decerebrate cats, 0.1, 0.3, 1 and 3 mg/kg i.v.) is listed as “without any significant reduction” and the “increase in bladder capacity (maximal increase)” value (decerebrate cats; decerebrate cats, 0.1, 0.3, 1 and 3 mg/kg i.v., dose-dependent) is listed as 94%. For the same molecule, the “micturition reflex induced by topical application of capsaicin onto the surface of the bladder dome” value (guinea pig) was “inhibited”, the “distension-induced rhythmic bladder contractions” value (guinea pig; systemic administration) was “decreased the number but not the amplitude” and the “carbachol or electrical field stimulation induced contractions of isolated bladder strips” value (isolated bladder strips) was “had no effect”.
